Measured values taken from patent US20220354818A1, “METHODS FOR TREATING BRAIN INJURY OR COGNITIVE DYSFUNCTION BY PHARMACOLOGICAL ENHANCMENT OF M-TYPE POTASSIUM ION CURRENTS IN NEURONS” (Advanced Neuroresearch Therapeutics LLC, priority 2019, published 2022).
Entries after “also recorded” stand apart in the source; their conditions may differ.

Key:
[1] = tested on: mice subjected to one blunt TBI, pentylenetetrazol (PTZ); experiment: PTZ-induced seizure susceptibility after one blunt TBI (CCCI); format: in vivo, mouse; conditions: RL648_81 at 0.1 mg/kg; PTZ 35 mg/kg s.c. fifth day post-TBI
From the text: Stimulation with PTZ induced the occurrence of clonic and tonic-clonic seizures in TBI-subjected mice.

[2] = tested on: mice subjected to one blunt TBI (CCCI); experiment: Dosage optimization: spontaneous myoclonic seizures after one blunt TBI (CCCI); format: in vivo, mouse; conditions: RL648_81 0.03, 0.1 and 0.3 mg/kg i.p. once 30 minutes post-TBI
Description: An additional KCNQ2/3-specific compound, RL648_81 was also administered in the same manner (0.03 mg/kg, 0.1 mg/kg, and 0.3 mg/kg). […] To monitor the occurrence of spontaneous myoclonic seizures after, the mice were video/EEG monitored from the second to the fourth day after the TBI (72 hours total).

cortical neurons = experiment: In vivo two-photon calcium imaging of cortical neurons through a cranial window after TBI; conditions: living mouse brain
From the text: Referring now to FIG. 9, another embodiment of the present invention concerns in vivo imaging of intracellular calcium levels in neurons from living brain in vivo, as a reporter of activity/hyperactivity. The genetically-encoded calcium reporter, GCaMP6f, was used in transgenic mice in which the reporter is expressed in critical subsets of brain neurons, allowing in vivo recordings of neurons of living brain, as a reporter of activity/hyperactivity in cortex induced by TBI, the first event in the hypothesis of the present invention, which causes TBI-induced brain damage (See, e.g., FIG. 1). For these experiments two-photon confocal live imaging of mouse cortical neurons through a cortical window was used. Live video records of the activity of cortical neurons in mice before and after TBI were made.

[3] = tested on: neurons of the dentate gyrus of the hippocampus; experiment: Ex vivo brain-slice calcium imaging (GCaMP6f) with kainic acid stimulation after TBI; format: in vivo, mouse; conditions: RL648_81 30 minutes after blunt TBI
Description: In another embodiment of the present invention, ex vivo imaging of intracellular calcium levels in neurons, which are a reporter of activity or hyper-activity of neurons, were assayed in the brain slices using transgenic mice expressing the genetically encoded indicator of calcium levels, GCaMP6f expressed only in neurons.
Turning now to FIG. 8, the chemo-convulsant, kainic acid (KA), was used to stimulate neurons from brain slices of the dentate gyms (DG) of the hippocampus (the part of the brain where most new memories are thought to form) from sham mice, mice subjected to a TBI but not drug or TBI followed by RL-648_81.

sympathetic neuron = experiment: Action potential firing in a sympathetic neuron, current-clamp
From the text: Various currents are applied in “current-clamp” mode 44 ranging from 50 pA to −100 pA, and the resulting AP firing recorded.

Row | Structure (SMILES) | occurrence of PTZ-induced seizures [1] | occurrence of TBI-induced myoclonic seizures [2] | TBI-induced hyper-excitability in cortex imaged in vivo (cortical neurons) | TBI-induced increase in hyper-activity in response to kainic acid stimulation (hippocampal slices, ex vivo) [3] | action potential firing in response to stimuli (sympathetic neuron)
1 | CCOC(=O)Nc1ccc(NCc2ccc(C(F)(F)F)cc2)c(F)c1N [RL648_81] | completely blocked the occurrence of PTZ-induced seizures | measurably reduced the occurrence of TBI-induced myoclonic seizures | prevents TBI-induced hyper-excitability in cortex | reduces the increased seizure susceptibility in brain slices; also recorded: completely abolished | 
2 | O=C1N(c2ccccc2)c2ccccc2C1(Cc1ccncc1)Cc1ccncc1 [leopardine] |  |  |  |  | out-of-control AP firing
